The values below come from patent US20030228621A1, “Common ligand universal enzyme assay and compositions for use therein” (priority 2002, published 2003).

Like-named read-outs stand apart in the source and are kept apart here. Some results are limits rather than exact numbers.

The target of experiment [1] is T1, dihydrodipicolinate reductase (DHPR) (Escherichia coli, UniProt P04036). The experiment in a line: Fluorescence polarization displacement of FITC-NADH from dihydrodipicolinate reductase. The format is binding. The procedure: FITC-NADH was dissolved in 10 mM TAPS buffer with 5% NaHCO3, pH=8. The final concentration of FITC-NADH was 150 μM. In later experiments 150 μM FITC-NADH was diluted to the desired concentration in 20 mM Potassium Phosphate buffer, pH=7.4. Fluorescence polarization was monitored using a Beacon 2000 Variable Temperature Fluorescence Polarization System (PanVera Corporation, Madison, Wis.) and an LJL Analyst HT 96-384 (Molecular Devices Corporation, Sunnyvale, Calif.). The concentration of FITC-NADH as fluorescent tracer was selected by measuring fluorescence polarization of varying concentrations of FITC-NADH in 10 mM Potassium Phosphate buffer, pH=7.4. The concentration range was 0.15 nM—15 nM. For the best signal to noise ratio regarding both the horizontal and vertical intensities that contribute to the fluorescence polarization value, a concentration of 25 nM was chosen for FITC-NADH in the majority of experiments.
T1 sequence (P04036 whole entry): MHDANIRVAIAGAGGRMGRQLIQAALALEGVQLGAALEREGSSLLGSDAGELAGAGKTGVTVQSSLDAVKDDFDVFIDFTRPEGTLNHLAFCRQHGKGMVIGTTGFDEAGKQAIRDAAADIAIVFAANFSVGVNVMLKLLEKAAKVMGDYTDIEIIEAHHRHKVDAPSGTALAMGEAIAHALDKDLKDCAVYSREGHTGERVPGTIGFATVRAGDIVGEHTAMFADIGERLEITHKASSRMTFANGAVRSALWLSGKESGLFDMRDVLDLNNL
The fluorescence polarization of solutions of 7 μM dihydrodipicolinate reductase and 25 nM FITC-NADH with NADH was measured. The concentration of dihydrodipicolinate reductase was such that a solution of dihydrodipicolinate reductase and FITC-NADH would give the fluorescence polarization mP value of 220-230 mP. The blank was protein in buffer and NADH. […] The data was fitted to the following equation:
mP=YH′−(YH′−YL)*(1/(1+Kd^app/C))
Kd=Kd^app*(1/(1+A/Kd^tracer))
(§1) where C is the concentration of NADH; A is the concentration of enzyme; YH′ is the polarization for the FITC-NADH at the specified enzyme concentration in the absence of NADH; YL is the polarization for FITC-NADH when fully displaced from the enzyme by NADH; and Kd^tracer is the dissociation constant of the enzyme for FITC-NADH.
The displacement of FITC-NADH from dihydrodipicolinate reductase in the presence of the candidate inhibitor compound bromaminic acid, an NMNH-mimic (nicotinamide mononucleotide mimic), was measured by fluorescence polarization assay. The concentration of dihydrodipicolinate reductase was such that dihydrodipicolinate reductase in the presence of FITC-NADH would give the fluorescence polarization, mP, value of 220-230. Protein in buffer combined with the inhibitor was used as the blank.
The Log(bromaminic acid, μM) versus Polarization (mP) data were fitted to the following equation: […]
as §1
In this assay, enzyme in the presence of the ligand has less FITC-NADPH bound if both of the ligands compete for the same site.
(§2) A population of 620 compounds were screened in the competitive displacement assay described herein. […] These compounds are depicted in FIG. 16.
Background: Polarisation of emitted light reports the rotation of a fluorescent probe.

The target of experiment [2] is T1, dihydrodipicolinate reductase (DHPR). The experiment in a line: Enzyme activity in presence and absence of varying concentration of dye, DHPR. The following applies: for IC50: read-out: Inhibition (IC50, nM) DHPR. The format is biochemical. Here is the method:
(§3) In search for specific ligands with potent binding to several dehydrogenases we screened our internal enzyme panel. In brief, activity of the enzymes was measured in the presence and absence of the varying concentration of the dyes.

The target in experiment [3] is Deoxy-D-xylulose 5-phosphate reductoisomerase (DOXPR) (Escherichia coli, UniProt P45568). Description: Enzyme activity in presence and absence of varying concentration of dye, DOXPR. The following applies: for IC50: NADPH at sixteen times its Km, read-out: Inhibition (IC50, nM) DOXPR. The format is biochemical. Here is the method: as §3
Sequence of Deoxy-D-xylulose 5-phosphate reductoisomerase (DOXPR) (P45568 whole entry): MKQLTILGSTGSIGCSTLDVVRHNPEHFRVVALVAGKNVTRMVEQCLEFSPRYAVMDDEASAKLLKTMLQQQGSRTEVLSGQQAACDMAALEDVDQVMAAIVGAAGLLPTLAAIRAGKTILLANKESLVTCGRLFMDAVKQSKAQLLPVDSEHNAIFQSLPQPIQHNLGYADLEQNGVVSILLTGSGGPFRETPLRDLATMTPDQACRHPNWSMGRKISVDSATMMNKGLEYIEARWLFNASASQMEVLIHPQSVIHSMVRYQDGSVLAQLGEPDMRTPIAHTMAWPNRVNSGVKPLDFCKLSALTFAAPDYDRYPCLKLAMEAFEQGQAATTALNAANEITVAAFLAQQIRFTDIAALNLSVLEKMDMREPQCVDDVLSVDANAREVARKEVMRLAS
(§4) In this assay, the oxidoreductase common ligand (NADPH) was employed at a concentration sixteen times its Km value. Use of such a high concentration of oxidoreductase common ligand results in a calculated IC50 value at least 17-fold that of the dissociation constant (Kd).

Experiment [4] has as its target Lactate dehydrogenase (LDH). Description: Enzyme activity in presence and absence of varying concentration of dye, LDH. The format is biochemical. The following applies: read-out: Inhibition (IC50, nM) LDH. The procedure: as §3
Experiment [5] concerns the target T2, 3-Hydro-3-methyl-glutaryl-CoA reductase (HMGCoAR) (Homo sapiens, UniProt P04035).
T2 sequence (P04035 1-888): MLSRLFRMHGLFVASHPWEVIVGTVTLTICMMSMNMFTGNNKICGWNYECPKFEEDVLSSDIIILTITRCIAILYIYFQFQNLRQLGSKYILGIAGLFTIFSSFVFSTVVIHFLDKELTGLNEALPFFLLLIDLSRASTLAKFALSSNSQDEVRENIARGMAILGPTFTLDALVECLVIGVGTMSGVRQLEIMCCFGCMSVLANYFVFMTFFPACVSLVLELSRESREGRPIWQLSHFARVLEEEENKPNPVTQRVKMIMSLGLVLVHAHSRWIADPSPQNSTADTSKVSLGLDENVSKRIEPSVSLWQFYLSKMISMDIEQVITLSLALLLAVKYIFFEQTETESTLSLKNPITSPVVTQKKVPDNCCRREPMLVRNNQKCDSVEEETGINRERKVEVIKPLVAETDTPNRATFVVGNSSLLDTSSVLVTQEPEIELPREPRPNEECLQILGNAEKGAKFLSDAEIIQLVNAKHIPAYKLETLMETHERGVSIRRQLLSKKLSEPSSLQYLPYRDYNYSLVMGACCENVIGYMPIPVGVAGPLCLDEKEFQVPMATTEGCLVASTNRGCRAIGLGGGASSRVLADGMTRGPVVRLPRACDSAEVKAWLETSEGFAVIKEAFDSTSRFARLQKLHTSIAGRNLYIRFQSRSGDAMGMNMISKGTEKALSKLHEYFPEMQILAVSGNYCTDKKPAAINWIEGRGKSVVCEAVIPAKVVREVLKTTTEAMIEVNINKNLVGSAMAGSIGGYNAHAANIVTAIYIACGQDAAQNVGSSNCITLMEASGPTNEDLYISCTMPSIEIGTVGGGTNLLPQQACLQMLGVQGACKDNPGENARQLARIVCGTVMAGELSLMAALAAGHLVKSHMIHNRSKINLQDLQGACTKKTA
The experiment in a line: Enzyme activity in presence and absence of varying concentration of dye, HMGCoAR. The format is biochemical. Particulars: read-out: Inhibition (IC50, nM) HMGCoAR. Here is the method: as §3

Experiment [6] deals with Enoyl-acyl carrier protein reductase (EACPR) (Escherichia coli, UniProt P0AEK4). The experiment in a line: Enzyme activity in presence and absence of varying concentration of dye, EACPR. It counts as biochemical. Particulars: read-out: Inhibition (IC50, nM) EACPR. The procedure:
as §3

Experiment [7] relates to dehydrogenases. Description: Extent and reversibility of inhibition of the dehydrogenase panel by triazinyl dyes. The format is biochemical. The procedure:
as §3
Since all of the dye molecules have a triazinyl reactive group, reversibility of the inhibition was checked.
as §4

The target in experiment [8] is DOXPR (Escherichia coli, UniProt P45568). Description: Displacement of FITC-NADPH from the FITC-NADPH:DOXPR complex. It counts as binding.
Sequence of DOXPR (P45568 whole entry): as the sequence (P45568 whole entry) above
Source text: (§5) The competitive binding of the dye common ligands of the present invention can be evaluated by use of a displacement assay. In particular, enzyme in the presence of a competitive ligand will have less FITC-NADPH bound if both ligands compete for the same site. […] The dye common ligands of the present invention can completely displace FITC-NADPH from complexes containing this fluorescent tracer and a dehydrogenase. […] Thus, dye common ligands of the invention are useful in displacement assays to study the activity of an oxidoreductase, particularly those having unknown function.
(§6) In competitive assays, the tested dyes displaced the fluorescent-based tracer FITC-NADPH, implying that the dyes bind to DOXPR at the common ligand site. In this assay, enzyme in the presence of the ligand has less FITC-NADPH bound if both of the ligands compete for the same site. […] Calculated Kd values were based on curve shape and were lower than the experimentally determined IC50s.
as §2

Experiment [9] concerns the target DHPR (Escherichia coli, UniProt P04036). Description: Intrinsic fluorescence of the compound upon binding to the enzyme. The following applies: excitation 365 nm, emission 435 nm. The text has this:
It can be used either as a tracer for the screening, with or without being labeled with a detectable moiety of the invention. As such, this compound can be used for screening candidate ligands.

Experiment [10] has as its target 1-deoxy-D-xylulose 5-phosphate reductoisomerase (DOXPR) (Escherichia coli, UniProt P45568). The experiment in a line: Displacement of FITC-NADPH from the FITC-NADPH:DOXPR complex (FIG. 14A, 14B). Particulars: displacement of FITC-NADPH tracer from DOXPR. The format is binding.
Source text: as §5, §6

Where [11] appears, read: 7 μM DHPR, 25 nM FITC-NADH, not corrected for enzyme concentration, read-out: Kapp (Kd app), displacement of FITC-NADH.
The mark [12] stands for this setting: 7 μM DHPR, 25 nM FITC-NADH, read-out: actual Kd after correction for enzyme concentration.
Where [13] appears, read: calculated from curve shape, read-out: Kd from displacement experiments with FITC-NADH and DHPR.

Usually IC50 stands for the point on the concentration scale where inhibition reaches its midpoint.

Sequence of 1-deoxy-D-xylulose 5-phosphate reductoisomerase (DOXPR) (P45568 whole entry): as the sequence (P45568 whole entry) above
Sequence of Enoyl-acyl carrier protein reductase (EACPR) (P0AEK4 whole entry): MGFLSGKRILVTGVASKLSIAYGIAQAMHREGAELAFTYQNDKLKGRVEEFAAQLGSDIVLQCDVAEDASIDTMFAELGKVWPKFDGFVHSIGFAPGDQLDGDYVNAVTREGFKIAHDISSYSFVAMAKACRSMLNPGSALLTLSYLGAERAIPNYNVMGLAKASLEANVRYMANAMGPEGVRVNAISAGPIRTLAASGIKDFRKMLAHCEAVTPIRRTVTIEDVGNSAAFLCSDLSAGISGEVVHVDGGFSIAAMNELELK
Sequence of DHPR (P04036 whole entry): as the sequence (P04036 whole entry) above

For `NC(=O)C1=CN([C@@H]2O[C@H](COP(=O)(O)OP(=O)(O)OC[C@H]3O[C@@H](n4cnc5c(N)ncnc54)[C@H](O)[C@@H]3O)[C@@H](O)[C@H]2O)C=CC1` [NADH, Reduced nicotinamide adenine dinucleotide], the figures for the Kd in experiment [1] (setting [11]) and in [1] (setting [12]) were 1.2 ± 0.15 µM and 0.2 µM, respectively.
For `Nc1c(S(=O)(=O)O)cc(Nc2ccc(Nc3nc(Cl)nc(Nc4cccc(S(=O)(=O)O)c4)n3)c(S(=O)(=O)O)c2)c2c1C(=O)c1ccccc1C2=O` [Reactive Blue 2], the IC50 in experiment [2] was found to be 1100 nM; in [3], 2000 nM; in experiment [4], 1500 nM; in experiment [5], 1000 nM; in experiment [6], 2500 nM. In addition, the “reversibility of the inhibition” value in experiment [7] is given as “full reversible inhibition”.
As for `Nc1c(S(=O)(=O)O)cc(Br)c2c1C(=O)c1ccccc1C2=O` [bromaminic acid], the Kd in [1] (setting [11]) stood at 30 ± 2.2 µM; in experiment [1] (setting [12]), 5 µM.
Take Reactive Green 5: in experiment [1] (setting [13]), the Kd is 0.015 µM. Moreover, the half-inhibitory concentration (IC50) in experiment [2] stood at 230 nM; in experiment [4], 590 nM; in experiment [5], 44 nM. Further, the “mode of inhibition versus oxidoreductase common ligand (NADPH)” value in experiment [3] is “competitive”. In addition, the “displacement of FITC-NADPH from the FITC-NADPH:DOXPR complex” value in [8] is given as “completely displaced”. For the same molecule, the “reversibility of the inhibition” value in [7] is recorded as “full reversible inhibition”.
In the case of Sulphophthalocyanine, the “binding to DHPR” value in experiment [2] (tested for inhibition of DHPR) is “binds”. Besides, the “binding to DOXPR” value in [3] (tested for inhibition of DOXPR) is “binds”.
With `O=S(=O)(O)c1cc(Nc2nc(Nc3ccccc3)nc(N(CCO)CCO)n2)ccc1/C=C\c1ccc(Nc2nc(Nc3ccccc3)nc(N(CCO)CCO)n2)cc1S(=O)(=O)O`, the Kd in experiment [1] (compound from screen of 620 compounds, read-out: kd, tight binding to DHPR) was less than 0.1 µM. The “increase in intrinsic fluorescence upon binding to the enzyme” value in [9] was 3 fold.
`O=S(=O)(O)c1cc(Nc2nc(Cl)nc(Nc3ccc(Nc4nc(Cl)nc(Nc5cc(S(=O)(=O)O)cc6cc(S(=O)(=O)O)c(N=Nc7ccccc7S(=O)(=O)O)c(O)c56)n4)cc3)n2)c2c(O)c(N=Nc3ccccc3S(=O)(=O)O)c(S(=O)(=O)O)cc2c1` [Reactive Red 120]: the Kd in [1] (setting [13]) was 0.054 µM; in [10] (calculated, based on curve shape) it was 0.0058 µM. The IC50 in [2] was determined as 220 nM; in experiment [3], 230 nM; in experiment [4] it was 9.7 nM; in experiment [5] it was 360 nM; in experiment [6], 246 nM; in [10], 0.31 µM. Moreover, the “mode of inhibition versus oxidoreductase common ligand (NADPH)” value in experiment [3] was “competitive”. The “displacement of FITC-NADPH from the FITC-NADPH:DOXPR complex” value in experiment [8] is given as “completely displaced”. Besides, the “reversibility of the inhibition” value in experiment [7] is on record as “full reversible inhibition”.
